We go through one molecule from article PMC10354055, “An optimized Nurr1 agonist provides disease-modifying effects in Parkinson’s disease models” (Nature Communications, 2023).

Holding throughout (format): cell-based
The target of test [1] is T1, Nor1 (Homo sapiens, UniProt Q92570).
T1 construct: using LBD of NR4A subfamily members in SK-N-BE(2)C cells; expressed in transfected cells; host or cells: SK-N-BE(2)C
Kind of test: Luciferase reporter assay, Nor1 LBD, SK-N-BE(2)C cells. As to conditions: Fig. 1f; CQ 100 µM, 4A7C-301 20 µM, PGA1 10 µM.

Test [2] deals with T2, Nurr1-LBD point mutants (Mus musculus, UniProt Q06219, D594A).
T2 construct: expressed in transfected cells; host or cells: SK-N-BE(2)C
Kind of test: Luciferase assay with point-mutants of Nurr1-LBD, SK-N-BE(2)C cells.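 Also: Firefly luciferase normalized to beta-galactosidase activity.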 To be noted: Supplementary Fig. 2, D594A. The procedure:
(§1) Nurr1 transactivity was normalized to β-galactosidase activity.
(§2) Nurr1 mutants were generated using the QuikChange ǁ XL site-directed mutagenesis kit (Agilent Technologies) according to the manufacturer’s instruction. Mutagenesis reactions were carried out on the plasmid of mouse Nurr1 cloned into pcDNA3.1 backbone, and then verified by sequencing.

For test [3], the target named is T3, Nurr1-LBD point mutants (Mus musculus, UniProt Q06219).
T3 construct: expressed in transfected cells; host or cells: SK-N-BE(2)C
The description is as above. As to conditions: Supplementary Fig. 2, WT. As for the experimental part: as §1, §2

The target in test [4] is T4, Nurr1-LBD point mutants (Mus musculus, UniProt Q06219, S441A).
T4 construct: expressed in transfected cells; host or cells: SK-N-BE(2)C
The description is as above. As to conditions: Supplementary Fig. 2, S441A. As for the experimental part:
as §1, §2

The target of test [5] is T5, Nurr1-LBD point mutants (Mus musculus, UniProt Q06219, K590A).
T5 construct: expressed in transfected cells; host or cells: SK-N-BE(2)C
The description is as above. As to conditions: Supplementary Fig. 2, K590A. As for the experimental part: as §1, §2

For test [6], the target named is T6, Nurr1-LBD point mutants (Mus musculus, UniProt Q06219, L593A).
T6 construct: expressed in transfected cells; host or cells: SK-N-BE(2)C
The description is as above. To be noted: Supplementary Fig. 2, L593A. As for the experimental part: as §1, §2

Several values for one entry are separate records, joined by “and”; a condition that tells them apart may be missing. Equal entries are not always repeated.

T1 sequence (Q92570 394-623 limits assumed): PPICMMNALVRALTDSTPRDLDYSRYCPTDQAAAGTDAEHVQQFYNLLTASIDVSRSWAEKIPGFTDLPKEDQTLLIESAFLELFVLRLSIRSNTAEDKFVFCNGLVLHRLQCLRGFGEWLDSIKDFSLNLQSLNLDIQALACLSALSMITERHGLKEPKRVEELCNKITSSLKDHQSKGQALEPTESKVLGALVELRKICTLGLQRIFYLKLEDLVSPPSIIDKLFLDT
T6 sequence (Q06219 whole entry L593A, the tested form may be a part): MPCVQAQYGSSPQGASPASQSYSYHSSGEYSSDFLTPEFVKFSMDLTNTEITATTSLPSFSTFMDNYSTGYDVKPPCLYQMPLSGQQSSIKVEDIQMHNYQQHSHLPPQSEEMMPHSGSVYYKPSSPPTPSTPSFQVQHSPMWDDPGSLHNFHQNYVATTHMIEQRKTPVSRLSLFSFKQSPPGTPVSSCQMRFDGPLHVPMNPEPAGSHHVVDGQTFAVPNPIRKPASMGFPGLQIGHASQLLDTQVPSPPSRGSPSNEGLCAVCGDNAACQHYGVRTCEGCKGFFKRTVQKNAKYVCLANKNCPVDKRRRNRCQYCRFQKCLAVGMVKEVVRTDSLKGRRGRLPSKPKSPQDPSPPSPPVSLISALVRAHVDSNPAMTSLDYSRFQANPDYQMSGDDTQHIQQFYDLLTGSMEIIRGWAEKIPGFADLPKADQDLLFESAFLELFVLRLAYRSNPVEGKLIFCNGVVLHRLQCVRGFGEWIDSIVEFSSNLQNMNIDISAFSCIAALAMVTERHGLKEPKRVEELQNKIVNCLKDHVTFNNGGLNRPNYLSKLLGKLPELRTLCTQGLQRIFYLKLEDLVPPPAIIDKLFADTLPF
T3 sequence (Q06219 whole entry, change not shown, the tested form may be a part): as the sequence (Q06219 whole entry L593A, the tested form may be a part) above, with A593L counted along it
T5 sequence (Q06219 whole entry K590A, the tested form may be a part): as the sequence (Q06219 whole entry L593A, the tested form may be a part) above, with K590A, A593L counted along it
T2 sequence (Q06219 whole entry D594A, the tested form may be a part): as the sequence (Q06219 whole entry L593A, the tested form may be a part) above, with A593L, D594A counted along it
T4 sequence (Q06219 whole entry S441A, the tested form may be a part): as the sequence (Q06219 whole entry L593A, the tested form may be a part) above, with S441A, A593L counted along it

Take `CCCCC[C@H](O)/C=C/[C@H]1C=CC(=O)[C@@H]1CCCCCCC(=O)O` [PGA1, Prostaglandin A1]: the “Luciferase activity (fold), Nor1” value in test [1] was 8.223 fold and 7.904 fold and 8.304 fold. For the same molecule, the “Luciferase activity (fold)” value in test [2] was 12.291 fold and 11.1318 fold and 11.3674 fold; in test [3], 12.6112 fold and 12.2963 fold and 12.2061 fold; in test [4], 12.6359 fold and 12.6237 fold and 10.9807 fold; in test [5] it was 12.5774 fold and 11.0052 fold and 12.4192 fold; in test [6] it was 11.666 fold and 12.1821 fold and 11.0369 fold.
